≈ marks a conversion by molar mass, not a printed value.
Tests used:
Staphylococcus aureus [1] = assay: Bactericidal activity against Staphylococcus aureus wound isolate after 24 hr by NCCLS dilution tube method; format: functional
Escherichia coli [2] = assay: Bactericidal activity against Escherichia coli bronchi isolate after 24 hr by NCCLS dilution tube method; format: functional
Escherichia coli [3] = assay: Bactericidal activity against Escherichia coli urine isolate after 24 hr by NCCLS dilution tube method; format: functional
Acinetobacter baumannii [4] = assay: Bactericidal activity against multidrug-resistant Acinetobacter baumannii urine isolate after 24 hr by NCCLS dilution tube method; format: functional
Acinetobacter baumannii [5] = assay: Bactericidal activity against multidrug-resistant Acinetobacter baumannii wound isolate after 24 hr by NCCLS dilution tube method; format: functional
Acinetobacter baumannii [6] = assay: Bactericidal activity against multidrug-resistant Acinetobacter baumannii bronchi isolate after 24 hr by NCCLS dilution tube method; format: functional
Klebsiella pneumoniae [7] = assay: Bactericidal activity against Klebsiella pneumoniae PTCC 1053 after 24 hr by NCCLS dilution tube method; format: functional; conditions: PTCC 1053, 24 h
Escherichia coli [8] = assay: Bactericidal activity against Escherichia coli PTCC 1338 after 24 hr by NCCLS dilution tube method; format: functional; conditions: PTCC 1338, 24 h
Pseudomonas aeruginosa [9] = assay: Bactericidal activity against Pseudomonas aeruginosa PTCC 1431 after 24 hr by NCCLS dilution tube method; format: functional; conditions: PTCC 1431, 24 h
Staphylococcus aureus [10] = assay: Bactericidal activity against Staphylococcus aureus PTCC 1074 after 24 hr by NCCLS dilution tube method; format: functional; conditions: PTCC 1074, 24 h
[11] = Octanol-water partition coefficient, log D of the compound at pH 7.4 after 6 hr by shake flask method; format: physicochemical
Klebsiella pneumoniae [12] = assay: Bactericidal activity against Klebsiella pneumoniae wound isolate after 24 hr by NCCLS dilution tube method; format: functional
Klebsiella pneumoniae [13] = assay: Bactericidal activity against Klebsiella pneumoniae urine isolate after 24 hr by NCCLS dilution tube method; format: functional
Pseudomonas aeruginosa [14] = assay: Bactericidal activity against Pseudomonas aeruginosa wound isolate after 24 hr by NCCLS dilution tube method; format: functional
Pseudomonas aeruginosa [15] = assay: Bactericidal activity against Pseudomonas aeruginosa urine isolate after 24 hr by NCCLS dilution tube method; format: functional
[16] = system: Staphylococcus saprophyticus; assay: Bactericidal activity against Staphylococcus saprophyticus bronchi isolate after 24 hr by NCCLS dilution tube method; format: functional
[17] = system: Staphylococcus epidermidis; assay: Bactericidal activity against Staphylococcus epidermidis eye isolate after 24 hr by NCCLS dilution tube method; format: functional
Staphylococcus aureus [18] = assay: Bactericidal activity against Staphylococcus aureus urine isolate after 24 hr by NCCLS dilution tube method; format: functional

Row | Structure (SMILES) | MBC (Staphylococcus aureus [1]) | MBC (Escherichia coli [2]) | MBC (Escherichia coli [3]) | MBC (Acinetobacter baumannii [4]) | MBC (Acinetobacter baumannii [5]) | MBC (Acinetobacter baumannii [6]) | MBC (Klebsiella pneumoniae [7]) | MBC (Escherichia coli [8]) | MBC (Pseudomonas aeruginosa [9]) | MBC (Staphylococcus aureus [10]) | logD at 6 h [11] | MBC (Klebsiella pneumoniae [12]) | MBC (Klebsiella pneumoniae [13]) | MBC (Pseudomonas aeruginosa [14]) | MBC (Pseudomonas aeruginosa [15]) | MBC [16] | MBC [17] | MBC (Staphylococcus aureus [18])
1 | Cn1cnc2c3c(Cl)c4ccccc4nc3ccc21 | 72.3 µg/mL (≈ 270 µM) | 89.3 µg/mL (≈ 334 µM) | 56.4 µg/mL (≈ 211 µM) | 10.9 µg/mL (≈ 40.7 µM) | 2 µg/mL (≈ 7.47 µM) | 4.7 µg/mL (≈ 17.6 µM) | 12.5 µg/mL (≈ 46.7 µM) | 6.25 µg/mL (≈ 23.3 µM) | 75 µg/mL (≈ 280 µM) | 3.1 µg/mL (≈ 11.6 µM) | 0.52 | 85.7 µg/mL (≈ 320 µM) | 47.9 µg/mL (≈ 179 µM) | 75 µg/mL (≈ 280 µM) | 85 µg/mL (≈ 317 µM) | 93.7 µg/mL (≈ 350 µM) | 73.7 µg/mL (≈ 275 µM) | 91 µg/mL (≈ 340 µM)
2 | CCCn1cnc2c3c(Cl)c4ccccc4nc3ccc21 | – | – | – | – | – | – | 25 µg/mL (≈ 84.5 µM) | 25 µg/mL (≈ 84.5 µM) | > 100 µg/mL | 6.25 µg/mL (≈ 21.1 µM) | 1.09 | – | – | – | – | – | – | –
3 | CCCCCn1cnc2c3c(Cl)c4ccccc4nc3ccc21 | – | – | – | – | – | – | 25 µg/mL (≈ 77.2 µM) | 50 µg/mL (≈ 154 µM) | > 100 µg/mL | 12.5 µg/mL (≈ 38.6 µM) | 1.48 | – | – | – | – | – | – | –
4 | CC1(C)S[C@@H]2[C@H](NC(=O)[C@H](N)c3ccc(O)cc3)C(=O)N2[C@H]1C(=O)O [AMOXICILLIN] | > 100 µg/mL | > 100 µg/mL | 76.2 µg/mL (≈ 209 µM) | > 100 µg/mL | > 100 µg/mL | > 100 µg/mL | – | – | – | – | – | > 100 µg/mL | > 100 µg/mL | > 100 µg/mL | > 100 µg/mL | > 100 µg/mL | > 100 µg/mL | > 100 µg/mL
5 | C=CC1=C(C(=O)O)N2C(=O)[C@@H](NC(=O)/C(=N\OCC(=O)O)c3csc(N)n3)[C@H]2SC1 [CEFIXIME] | 33.1 µg/mL (≈ 73 µM) | 23.1 µg/mL (≈ 50.9 µM) | 12.1 µg/mL (≈ 26.7 µM) | 75 µg/mL (≈ 165 µM) | 82.8 µg/mL (≈ 183 µM) | 87.5 µg/mL (≈ 193 µM) | – | – | – | – | – | 44.6 µg/mL (≈ 98.4 µM) | 20.8 µg/mL (≈ 45.9 µM) | 96.9 µg/mL (≈ 214 µM) | 20 µg/mL (≈ 44.1 µM) | 24.5 µg/mL (≈ 54 µM) | 28.7 µg/mL (≈ 63.3 µM) | 45.2 µg/mL (≈ 99.7 µM)
6 | CO/N=C(\C(=O)N[C@@H]1C(=O)N2C(C(=O)O)=C(COC(C)=O)CS[C@H]12)c1csc(N)n1 [CEFOTAXIME] | 12.7 µg/mL (≈ 27.9 µM) | 24.5 µg/mL (≈ 53.8 µM) | 17.3 µg/mL (≈ 38 µM) | 90.6 µg/mL (≈ 199 µM) | 95.8 µg/mL (≈ 210 µM) | 96.9 µg/mL (≈ 213 µM) | – | – | – | – | – | 51.8 µg/mL (≈ 114 µM) | 25 µg/mL (≈ 54.9 µM) | 81.2 µg/mL (≈ 178 µM) | 16.3 µg/mL (≈ 35.8 µM) | 95 µg/mL (≈ 209 µM) | 75 µg/mL (≈ 165 µM) | 77.2 µg/mL (≈ 169 µM)
7 | CC(C)(O/N=C(\C(=O)N[C@@H]1C(=O)N2C(C(=O)[O-])=C(C[n+]3ccccc3)CS[C@H]12)c1csc(N)n1)C(=O)O [CEFTAZIDIME] | 63.5 µg/mL (≈ 116 µM) | 45.4 µg/mL (≈ 83.1 µM) | 14.4 µg/mL (≈ 26.3 µM) | 93.7 µg/mL (≈ 171 µM) | 91.7 µg/mL (≈ 168 µM) | 90.6 µg/mL (≈ 166 µM) | – | – | – | – | – | 92.8 µg/mL (≈ 170 µM) | 22.9 µg/mL (≈ 41.9 µM) | 90.6 µg/mL (≈ 166 µM) | 43.8 µg/mL (≈ 80.1 µM) | 82.4 µg/mL (≈ 151 µM) | 73.7 µg/mL (≈ 135 µM) | 80.2 µg/mL (≈ 147 µM)
8 | NC[C@H]1O[C@H](O[C@H]2[C@H](O)[C@@H](O[C@H]3O[C@H](CO)[C@@H](O)[C@H](N)[C@H]3O)[C@H](N)C[C@@H]2N)[C@H](O)[C@@H](O)[C@@H]1O [KANAMYCIN] | 17.9 µg/mL (≈ 36.9 µM) | 85.5 µg/mL (≈ 176 µM) | 84.4 µg/mL (≈ 174 µM) | > 100 µg/mL | > 100 µg/mL | > 100 µg/mL | – | – | – | – | – | 16 µg/mL (≈ 33 µM) | 12.5 µg/mL (≈ 25.8 µM) | 48.4 µg/mL (≈ 99.9 µM) | 47.9 µg/mL (≈ 98.9 µM) | 40 µg/mL (≈ 82.6 µM) | 25 µg/mL (≈ 51.6 µM) | 55.1 µg/mL (≈ 114 µM)
9 | CCn1cc(C(=O)O)c(=O)c2ccc(C)nc21 [NALIDIXIC ACID] | 81.6 µg/mL (≈ 351 µM) | 22.7 µg/mL (≈ 97.7 µM) | 24 µg/mL (≈ 103 µM) | > 100 µg/mL | > 100 µg/mL | > 100 µg/mL | – | – | – | – | – | 25.9 µg/mL (≈ 112 µM) | 29.1 µg/mL (≈ 125 µM) | > 100 µg/mL | > 100 µg/mL | > 100 µg/mL | > 100 µg/mL | > 100 µg/mL
10 | CCn1cc(C(=O)O)c(=O)c2cc(F)c(N3CCNCC3)cc21 [NORFLOXACIN] | 9.8 µg/mL (≈ 30.7 µM) | 12.2 µg/mL (≈ 38.2 µM) | 7.3 µg/mL (≈ 22.9 µM) | 62.5 µg/mL (≈ 196 µM) | 41.7 µg/mL (≈ 131 µM) | 37.5 µg/mL (≈ 117 µM) | – | – | – | – | – | 50 µg/mL (≈ 157 µM) | 11.5 µg/mL (≈ 36 µM) | 25.8 µg/mL (≈ 80.8 µM) | 13.7 µg/mL (≈ 42.9 µM) | 50 µg/mL (≈ 157 µM) | 75 µg/mL (≈ 235 µM) | 11.5 µg/mL (≈ 36 µM)
11 | CN(C)[C@@H]1C(O)=C(C(N)=O)C(=O)[C@@]2(O)C(O)=C3C(=O)c4c(O)cccc4[C@@](C)(O)[C@H]3C[C@@H]12 [TETRACYCLINE] | 12.5 µg/mL (≈ 28.1 µM) | – | 20.4 µg/mL (≈ 45.9 µM) | 87.5 µg/mL (≈ 197 µM) | – | – | – | – | – | – | – | 30.3 µg/mL (≈ 68.2 µM) | 26 µg/mL (≈ 58.5 µM) | 54.7 µg/mL (≈ 123 µM) | 21.2 µg/mL (≈ 47.7 µM) | – | 81.2 µg/mL (≈ 183 µM) | 26.3 µg/mL (≈ 59.2 µM)
12 | NC[C@H]1O[C@H](O[C@H]2[C@H](O)[C@@H](O[C@H]3O[C@H](CO)[C@@H](O)[C@H](N)[C@H]3O)[C@H](N)C[C@@H]2N)[C@H](N)C[C@@H]1O [TOBRAMYCIN] | 17.3 µg/mL (≈ 37 µM) | 74 µg/mL (≈ 158 µM) | 64.3 µg/mL (≈ 138 µM) | 78.1 µg/mL (≈ 167 µM) | 83.3 µg/mL (≈ 178 µM) | 68 µg/mL (≈ 145 µM) | – | – | – | – | – | 24.1 µg/mL (≈ 51.5 µM) | 28.1 µg/mL (≈ 60.1 µM) | 26.5 µg/mL (≈ 56.7 µM) | 13.7 µg/mL (≈ 29.3 µM) | 25 µg/mL (≈ 53.5 µM) | 50 µg/mL (≈ 107 µM) | 11.8 µg/mL (≈ 25.2 µM)

— ChEMBL document CHEMBL3046735, “11-Chloro-3-methyl-3H-imidazo[4,5-a]acridine (CMIA) as a potent and selective antimicrobial agent against clinical isolates of highly antibiotic-resistant Acinetobacter baumannii” (Med Chem Res, 2012)
